From patent US20220315554A1, “COMPOUNDS COMPRISING A […] LIGAND AND USE THEREOF” (priority 2019, published 2022)
Numbered stars: 1 amine (or outer) side, 2 acyl side, 3 side chain; on linkers, the order of the positions; unused ones are H or OH. Bridge positions count the residues as written; N and C are the ends. Square brackets hold non-standard residues; d marks the D form. Peptide text beside a SMILES is read from it. * marks the point of attachment. TBMB(SCH2CH2NH-DOTA) = O=C(O)CN1CCN(CC(=O)O)CCN(CC(=O)NCCSCc2cc(C[*:1])cc(C[*:2])c2)CCN(CC(=O)O)CC1; X3 = NC(=O)[C@H](CCCCNC(=O)CN1CCN(CC(=O)O)CCN(CC(=O)O)CCN(CC(=O)O)CC1)NC(=O)CCC(=O)NCCCOCCOCCOCCCN*; mXylylene = c1cc(C[*:1])cc(C[*:2])c1; 4Amb = NCc1ccc(C(=O)O)cc1; Hexanoyl = CCCCCC(=O)*; GABA = NCCCC(=O)O

Key:
[1] = target: T1, FAP-expressing human WI-38 fibroblasts (Homo sapiens, UniProt Q12884); assay: Competitive FACS binding assay; conditions: pIC50 Category (FACS), competition with 3 nM Cy5-labeled compound, 4° C., 1 hour
T1 construct: FAP-expressing human WI-38 fibroblasts (ECACC) were cultured in EMEM; host or cells: WI-38 human fibroblasts
T1 sequence (Q12884 1-760): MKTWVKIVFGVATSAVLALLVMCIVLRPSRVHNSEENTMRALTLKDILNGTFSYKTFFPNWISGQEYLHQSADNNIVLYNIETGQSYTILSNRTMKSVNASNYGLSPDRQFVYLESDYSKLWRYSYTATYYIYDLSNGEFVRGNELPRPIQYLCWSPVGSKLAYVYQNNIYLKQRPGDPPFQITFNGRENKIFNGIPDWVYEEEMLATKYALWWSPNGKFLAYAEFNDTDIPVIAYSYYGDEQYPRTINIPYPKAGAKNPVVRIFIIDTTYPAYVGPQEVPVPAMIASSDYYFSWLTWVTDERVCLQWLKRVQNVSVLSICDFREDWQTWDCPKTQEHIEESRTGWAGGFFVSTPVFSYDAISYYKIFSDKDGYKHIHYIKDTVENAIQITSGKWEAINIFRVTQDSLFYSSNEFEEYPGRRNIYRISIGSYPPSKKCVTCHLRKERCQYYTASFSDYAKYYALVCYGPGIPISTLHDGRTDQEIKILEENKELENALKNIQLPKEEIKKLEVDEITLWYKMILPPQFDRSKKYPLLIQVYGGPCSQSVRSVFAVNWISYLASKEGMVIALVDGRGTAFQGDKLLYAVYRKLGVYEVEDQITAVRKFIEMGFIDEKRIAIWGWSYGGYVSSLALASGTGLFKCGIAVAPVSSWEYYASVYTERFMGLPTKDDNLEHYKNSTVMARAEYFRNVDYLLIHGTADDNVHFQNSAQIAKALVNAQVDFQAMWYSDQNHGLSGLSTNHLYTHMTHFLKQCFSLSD
Protocol: Cells were analyzed in an Attune NxT flow cytometer. […]

[2] = target: T2, Human recombinant FAP (Homo sapiens, UniProt Q12884); assay: Surface plasmon resonance (Biacore) assay; type: binding
T2 sequence (Q12884 1-760): T1 sequence (Q12884 1-760)

[3] = target: T2, Human recombinant FAP; assay: FRET-based FAP protease activity assay; type: biochemical; set-up: purchased R&D systems 3715-SE; conditions: pIC50 Category (Activity), FRET substrate, 37° C.

IC50 ([1]; WI-38 fibroblasts) [nM]	Kd [2] [nM]	IC50 ([3]; recombinant human FAP) [nM]	Compound	IC50 [1] [nM]	IC50 [3] [nM]
< 10	< 10	< 10	CCCCCC(=O)N[C@H]1CSCc2cccc(c2)CSC[C@@H](C(=O)N[C@@H](CC(=O)O)C(N)=O)NC(=O)[C@H](Cc2ccccc2)NC(=O)[C@H](CCC(=O)O)NC(=O)[C@H]([C@@H](C)O)NC(=O)[C@@H]2CCCN2C(=O)[C@@H]2CCCN2C1=O [3BP-3288, Hex-[Cys(3MeBn)-Pro-Pro-Thr-Glu-Phe-Cys]-Asp-NH2] (Hexanoyl-CPPTEFCD-NH2; linker 1-7 via mXylylene)	–	–
< 10	< 10	< 10	CCCCCC(=O)N[C@H]1CSCc2cccc(c2)CSC[C@@H](C(=O)N[C@@H](CC(=O)O)C(=O)NCCCC(=O)N[C@@H](CCCNC(=N)N)C(N)=O)NC(=O)[C@H](Cc2ccccc2)NC(=O)[C@H](CCC(=O)O)NC(=O)[C@H]([C@@H](C)O)NC(=O)[C@@H]2CCCN2C(=O)[C@@H]2CCCN2C1=O [3BP-3300, Hex-[Cys(3MeBn)-Pro-Pro-Thr-Glu-Phe-Cys]-Asp-Gab-Arg-NH2] (Hexanoyl-CPPTEFCD[GABA]R-NH2; linker 1-7 via mXylylene)	–	–
< 10	< 10	< 10	CCCCCC(=O)N[C@H]1CSCc2cccc(c2)CSC[C@@H](C(=O)N[C@@H](CC(=O)O)C(=O)NCc2ccc(C(=O)N[C@@H](CCCNC(=N)N)C(N)=O)cc2)NC(=O)[C@H](Cc2ccccc2)NC(=O)[C@H](CCC(=O)O)NC(=O)[C@H]([C@@H](C)O)NC(=O)[C@@H]2CCCN2C(=O)[C@@H]2CCCN2C1=O [3BP-3301, Hex-[Cys(3MeBn)-Pro-Pro-Thr-Glu-Phe-Cys]-Asp-Pamb-Arg-NH2] (Hexanoyl-CPPTEFCD[4Amb]R-NH2; linker 1-7 via mXylylene)	–	–
–	–	–	CCCCCC(=O)N[C@H]1CSCc2cc(CSCCNC(=O)CN3CCN4CCN5CCN(CC3)CC(=O)[O][Lu]([O]C(=O)C4)[O]C(=O)C5)cc(c2)CSC[C@@H](C(=O)N[C@@H](CC(=O)O)C(=O)NCCCC(=O)N[C@@H](CCCNC(=N)N)C(=O)NCCCOCCOCCOCCCNC(=O)CCC(=O)NCCCOCCOCCOCCCNC(=O)CCC(=O)NCCCOCCOCCOCCCNC(=O)CCC(=O)N[C@@H](CCCCNC(=O)c2ccc(-c3c4ccc(=N)c(S(=O)(=O)O)c-4oc4c(S(=O)(=O)O)c(N)ccc34)c(C(=O)O)c2)C(N)=O)NC[C@H](Cc2ccccc2)NC(=O)[C@H](CCC(N)=O)NC(=O)C([C@@H](C)O)NC(=O)[C@@H]2CCCN2C(=O)[C@@H]2CCCC2C1=O (stereo partly drawn) [3BP-4373, Hex-[Cys(tMeBn(LuDOTA-AET))-Pro-Pro-Thr-Gln-Phe-Cys]-Asp-Gab-Arg-Ttds-Ttds-Ttds-Lys(AF488)-NH2]	10 to 79.4	< 10
–	–	–	CCCCCC(=O)N[C@H]1CSCc2cc(CSCCNC(=O)CCC(=O)NCCCOCCOCCOCCCNC(=O)c3ccc(NN)nc3)cc(c2)CSC[C@@H](C(=O)O)NC(=O)[C@H](Cc2ccccc2)NC(=O)[C@H](CCC(N)=O)NC(=O)[C@H]([C@@H](C)O)NC(=O)[C@@H]2CCCN2C(=O)[C@@H]2CCCN2C1=O [3BP-4376, Hex-[Cys-(tMeBn(H-HYNIC-Ttds-AET))-Pro-Pro-Thr-Gln-Phe-Cys]-OH]	< 10	< 10
–	–	–	CCCCCC(=O)N[C@H]1CSCc2cc(CSCCNC(=O)CN3CCN(CC(=O)O)CCN(CC(=O)O)Cc4cccc(n4)C3)cc(c2)CSC[C@@H](C(=O)O)NC(=O)[C@H](Cc2ccccc2)NC(=O)[C@H](CCC(N)=O)NC(=O)[C@H]([C@@H](C)O)NC(=O)[C@@H]2CCCN2C(=O)[C@@H]2CCCN2C1=O [3BP-4379, Hex-[Cys-(tMeBn(PCTA-AET))-Pro-Pro-Thr-Gln-Phe-Cys]-OH]	< 10	< 10
–	–	–	CCCCCC(=O)N[C@H]1CSCc2cc(CSCCNC(=O)CCP(=O)(O)CN3CCN(CP(=O)(O)CO)CCN(CP(=O)(O)CO)CC3)cc(c2)CSC[C@@H](C(=O)O)NC(=O)[C@H](Cc2ccccc2)NC(=O)[C@H](CCC(N)=O)NC(=O)[C@H]([C@@H](C)O)NC(=O)[C@@H]2CCCN2C(=O)[C@@H]2CCCN2C1=O [3BP-4380, Hex-[Cys-(tMeBn(NOPO-AET))-Pro-Pro-Thr-Gln-Phe-Cys]-OH]	< 10	< 10
–	–	–	CCCCCC(=O)N[C@H]1CSCc2cc(CSCCNC(=O)CCc3ccc(O)c(CN(CCN(CC(=O)O)Cc4cc(CCC(=O)O)ccc4O)CC(=O)O)c3)cc(c2)CSC[C@@H](C(=O)O)NC(=O)[C@H](Cc2ccccc2)NC(=O)[C@H](CCC(N)=O)NC(=O)[C@H]([C@@H](C)O)NC(=O)[C@@H]2CCCN2C(=O)[C@@H]2CCCN2C1=O [3BP-4381, Hex-[Cys-(tMeBn(HBED-AET))-Pro-Pro-Thr-Gln-Phe-Cys]-OH]	10 to 79.4	10 to 79.4
–	–	–	CCCCCC(=O)N[C@H]1CSCc2cc(CSCCNC(=O)CCCCC3(N(C)CC(=O)O)CN(CC(=O)O)CCN(CC(=O)O)C3)cc(c2)CSC[C@@H](C(=O)O)NC(=O)[C@H](Cc2ccccc2)NC(=O)[C@H](CCC(N)=O)NC(=O)[C@H]([C@@H](C)O)NC(=O)[C@@H]2CCCN2C(=O)[C@@H]2CCCN2C1=O [3BP-4382, Hex-[Cys-(tMeBn(DATA-AET))-Pro-Pro-Thr-Gln-Phe-Cys]-OH]	10 to 79.4	10 to 79.4
–	–	–	CCCCCC(=O)N[C@H]1CSCc2cc(CSCCNC(=O)CCC(=O)NCCCOCCOCCOCCCNC(=O)CCP(=O)(O)CN3CCN(CP(=O)(O)CO)CCN(CP(=O)(O)CO)CC3)cc(c2)CSC[C@@H](C(=O)O)NC(=O)[C@H](Cc2ccccc2)NC(=O)[C@H](CCC(N)=O)NC(=O)[C@H]([C@@H](C)O)NC(=O)[C@@H]2CCCN2C(=O)[C@@H]2CCCN2C1=O [3BP-4385, Hex-[Cys(tMeBn(NOPO-Ttds-AET))-Pro-Pro-Thr-Gln-Phe-Cys]-OH]	10 to 79.4	10 to 79.4
–	–	–	CCCC(NC(=O)CCC(=O)NCCCOCCOCCOCCCNC(=O)CN1CCN(CC(=O)O)CCN(CC(=O)O)CCN(CC(=O)O)CC1)C(=O)N[C@H]1CSCc2cc(CSCCNC(=O)CN3CCN(CC(=O)O)CCN(CC(=O)O)CCN(CC(=O)O)CC3)cc(c2)CSC[C@@H](C(=O)O)NC(=O)[C@H](Cc2ccccc2)NC(=O)[C@H](CCC(N)=O)NC(=O)[C@H]([C@@H](C)O)NC(=O)[C@@H]2CCCN2C(=O)[C@@H]2CCCN2C1=O (stereo partly drawn) [3BP-4386, DOTA-Ttds-Nle-[Cys(tMeBn(DOTA-AET))-Pro-Pro-Thr-Gln-Phe-Cys]-OH]	10 to 79.4	10 to 79.4
–	–	–	CCCCCC(=O)N[C@H]1CSCc2cc(CSCCNC(=O)CN3CCN(CC(=O)O)CCN(CC(=O)O)CCN(CC(=O)O)CC3)cc(c2)CSC[C@@H](C(=O)N[C@@H](CC(=O)O)C(=O)NCCCOCCOCCOCCCNC(=O)CCC(=O)N[C@@H](CCCCNC(=O)CN2CCN(CC(=O)O)CCN(CC(=O)O)CCN(CC(=O)O)CC2)C(N)=O)NC(=O)[C@H](Cc2ccccc2)NC(=O)[C@H](CCC(N)=O)NC(=O)[C@H]([C@@H](C)O)NC(=O)[C@@H]2CCCN2C(=O)[C@@H]2CCCN2C1=O [3BP-4391, Hex-[Cys(tMeBn(DOTA-AET))-Pro-Pro-Thr-Gln-Phe-Cys]-Asp-Ttds-Lys(DOTA)-NH2] (Hexanoyl-CPPTQFCD-X3; linker 1-7 via TBMB(SCH2CH2NH-DOTA))	< 10	< 10
–	–	–	CCCC(NC(=O)CCC(=O)NCCCOCCOCCOCCCNC(=O)CN1CCN(CC(=O)O)CCN(CC(=O)O)CCN(CC(=O)O)CC1)C(=O)N[C@H]1CSCc2cc(CSCCNC(=O)CN3CCN(CC(=O)O)CCN(CC(=O)O)CCN(CC(=O)O)CC3)cc(c2)CSC[C@@H](C(=O)N[C@@H](CC(=O)O)C(=O)NCCCOCCOCCOCCCNC(=O)CCC(=O)N[C@@H](CCCCNC(=O)CN2CCN(CC(=O)O)CCN(CC(=O)O)CCN(CC(=O)O)CC2)C(N)=O)NC(=O)[C@H](Cc2ccccc2)NC(=O)[C@H](CCC(N)=O)NC(=O)[C@H]([C@@H](C)O)NC(=O)[C@@H]2CCCN2C(=O)[C@@H]2CCCN2C1=O (stereo partly drawn) [3BP-4392, DOTA-Ttds-Nle-[Cys(tMeBn(DOTA-AET))-Pro-Pro-Thr-Gln-Phe-Cys]-Asp-Ttds-Lys(DOTA)-NH2]	10 to 79.4	10 to 79.4
–	–	–	CCCC(NC(=O)CCC(=O)NCCCOCCOCCOCCCNC(=O)CN1CCN(CC(=O)O)CCN(CC(=O)O)CCN(CC(=O)O)CC1)C(=O)N[C@H]1CSCc2cccc(c2)CSC[C@@H](C(=O)N[C@@H](CC(=O)O)C(=O)NCCCOCCOCCOCCCNC(=O)CCC(=O)N[C@@H](CCCCNC(=O)CN2CCN(CC(=O)O)CCN(CC(=O)O)CCN(CC(=O)O)CC2)C(N)=O)NC(=O)[C@H](Cc2ccccc2)NC(=O)[C@H](CCC(N)=O)NC(=O)[C@H]([C@@H](C)O)NC(=O)[C@@H]2CCCN2C(=O)[C@@H]2CCCN2C1=O (stereo partly drawn) [3BP-4393, DOTA-Ttds-Nle-[Cys(3MeBn)-Pro-Pro-Thr-Gln-Phe-Cys]-Asp-Ttds-Lys(DOTA)-NH2]	< 10	< 10
